Values quoted from earlier work in patent US8476466B2 (priority 2008, dated 2013).

System: mice
Conditions: mouse, in vivo

Row | Compound | 50% lethal dose (LD50, in mice) [mg/kg]
1 | C[As+](C)(C)CC(=O)[O-] [arsenobetaine] | 10000
2 | arsenic acid | 14 to 18
